Assay results from patent publication US20240000872A1, “NOVEL BACTERIOPHAGE THAT LYSES ACINETOBACTER GENUS BACTERIA HAVING RESISTANCE TO ANTIBIOTICS” (priority 2020, published 2024).

Test system: Acinetobacter baumannii strains
Assay: Antibiotic susceptibility test (CLSI disk diffusion test method, read per CLSI 2016); on antibiotic susceptibility S/I/R: key: ‘S’ means susceptible; ‘I’ means intermediate; ‘R’ means resistant; on antibiotic susceptibility class: key: ‘S’ means susceptible; ‘I’ means intermediate; ‘R’ means resistant; on susceptibility category (S/I/R): key: ‘S’ means susceptible; ‘I’ means intermediate; ‘R’ means resistant
Assay type: cell-based
Parameters: antibiotic susceptibility test value / susceptibility test value (number given before S/I/R) / antibiotic susceptibility value: unit not given here

## ampicillin-sulbactam
Host strain YMC14/01/C29
  antibiotic susceptibility class: R
  antibiotic susceptibility test value: 32
Host strain YMC14/01/IP122
  antibiotic susceptibility class: R
  antibiotic susceptibility test value: 32
Host strain YMC14/01/L8
  antibiotic susceptibility class: R
  antibiotic susceptibility test value: 32
Host strain YMC14/01/P31
  antibiotic susceptibility class: R
  antibiotic susceptibility test value: 32
Host strain YMC14/01/P117
  antibiotic susceptibility class: R
  antibiotic susceptibility test value: 32
Host strain YMC14/01/P224
  antibiotic susceptibility class: I
  antibiotic susceptibility test value: 16
Host strain YMC14/01/P727
  antibiotic susceptibility class: R
  antibiotic susceptibility test value: 32
Host strain YMC14/01/P728
  antibiotic susceptibility class: I
  antibiotic susceptibility test value: 16
Host strain YMC14/01/R130
  antibiotic susceptibility class: I
  antibiotic susceptibility test value: 16
Host strain YMC14/01/R160
  antibiotic susceptibility class: R
  antibiotic susceptibility test value: 32
Host strain YMC14/01/R198
  antibiotic susceptibility class: R
  antibiotic susceptibility test value: 32
Host strain YMC14/01/R257
  antibiotic susceptibility class: R
  antibiotic susceptibility test value: 32
Host strain YMC14/01/R270
  antibiotic susceptibility class: R
  antibiotic susceptibility test value: 32
Host strain YMC14/01/R324
  antibiotic susceptibility class: S
  antibiotic susceptibility test value: 8
Host strain YMC14/01/R443
  antibiotic susceptibility class: R
  antibiotic susceptibility test value: 32
Host strain YMC14/01/R451
  antibiotic susceptibility class: R
  antibiotic susceptibility test value: 32
Host strain YMC14/01/R560
  antibiotic susceptibility class: R
  antibiotic susceptibility test value: 32
Host strain YMC14/01/R617
  antibiotic susceptibility class: R
  antibiotic susceptibility test value: 32
Host strain YMC14/01/R671
  antibiotic susceptibility class: R
  antibiotic susceptibility test value: 32
Host strain YMC14/01/R732
  antibiotic susceptibility class: R
  antibiotic susceptibility test value: 32
Host strain YMC14/01/R767
  antibiotic susceptibility class: I
  antibiotic susceptibility test value: 16
Host strain YMC14/01/R904
  antibiotic susceptibility class: R
  antibiotic susceptibility test value: 32
Host strain YMC14/01/R905
  antibiotic susceptibility class: R
  antibiotic susceptibility test value: 32
Host strain YMC14/01/R921
  antibiotic susceptibility class: I
  antibiotic susceptibility test value: 16
Host strain YMC14/01/R941
  antibiotic susceptibility class: R
  antibiotic susceptibility test value: 32
Host strain YMC14/01/R958
  antibiotic susceptibility class: I
  antibiotic susceptibility test value: 16
Host strain YMC14/01/R1006
  antibiotic susceptibility class: I
  antibiotic susceptibility test value: 16
Host strain YMC14/01/R1199
  antibiotic susceptibility class: I
  antibiotic susceptibility test value: 16
Host strain YMC14/01/R1659
  antibiotic susceptibility class: I
  antibiotic susceptibility test value: 16
Host strain YMC14/01/R1722
  antibiotic susceptibility class: I
  antibiotic susceptibility test value: 16
Host strain YMC14/01/R1752
  antibiotic susceptibility class: I
  antibiotic susceptibility test value: 16
Host strain YMC14/01/R2429
  antibiotic susceptibility class: I
  antibiotic susceptibility test value: 16
Host strain YMC14/01/R2572
  antibiotic susceptibility class: I
  antibiotic susceptibility test value: 16
Host strain YMC14/01/R2855
  antibiotic susceptibility class: I
  antibiotic susceptibility test value: 16
Host strain YMC14/01/R2945
  antibiotic susceptibility class: S
  antibiotic susceptibility test value: 4
Host strain YMC14/01/R3007
  antibiotic susceptibility class: I
  antibiotic susceptibility test value: 16
Host strain YMC14/01/R3129
  antibiotic susceptibility class: R
  antibiotic susceptibility test value: 32
Host strain YMC14/01/R3317
  antibiotic susceptibility class: I
  antibiotic susceptibility test value: 16
Host strain YMC14/01/R3474
  antibiotic susceptibility class: R
  antibiotic susceptibility test value: 32
Host strain YMC14/01/R3574
  antibiotic susceptibility class: I
  antibiotic susceptibility test value: 16
Host strain YMC14/01/U313
  antibiotic susceptibility class: S
  antibiotic susceptibility test value: 2
Host strain YMC14/01/U318
  antibiotic susceptibility class: R
  antibiotic susceptibility test value: 32
Host strain YMC14/02/L18
  antibiotic susceptibility class: I
  antibiotic susceptibility test value: 16
Host strain YMC14/02/P47
  antibiotic susceptibility class: R
  antibiotic susceptibility test value: 32
Host strain YMC14/02/R1860
  antibiotic susceptibility class: I
  antibiotic susceptibility test value: 16
Host strain YMC14/02/R2417
  antibiotic susceptibility class: I
  antibiotic susceptibility test value: 16
Host strain YMC14/02/R2599
  antibiotic susceptibility class: R
  antibiotic susceptibility test value: 32
Host strain YMC14/02/R2668
  antibiotic susceptibility class: S
  antibiotic susceptibility test value: 8
Host strain YMC14/02/R2758
  antibiotic susceptibility class: S
  antibiotic susceptibility test value: 8
Host strain YMC14/02/R2781
  antibiotic susceptibility class: R
  antibiotic susceptibility test value: 32
Host strain YMC14/02/R3106
  antibiotic susceptibility class: S
  antibiotic susceptibility test value: 8
Host strain YMC14/02/R3419
  antibiotic susceptibility class: I
  antibiotic susceptibility test value: 16
Host strain YMC14/02/U1607
  antibiotic susceptibility class: I
  antibiotic susceptibility test value: 16
Host strain YMC14/03/L9
  antibiotic susceptibility class: I
  antibiotic susceptibility test value: 16
Host strain YMC14/03/P471
  antibiotic susceptibility class: S
  antibiotic susceptibility test value: 8
Host strain YMC14/03/R122
  antibiotic susceptibility class: R
  antibiotic susceptibility test value: 32
Host strain YMC14/03/R217
  antibiotic susceptibility class: I
  antibiotic susceptibility test value: 16
Host strain YMC14/03/R380
  antibiotic susceptibility class: S
  antibiotic susceptibility test value: 8
Host strain YMC14/03/R618
  antibiotic susceptibility class: S
  antibiotic susceptibility test value: 8
Host strain YMC14/03/R2144
  antibiotic susceptibility class: I
  antibiotic susceptibility test value: 16
Host strain YMC14/03/U4616
  antibiotic susceptibility class: I
  antibiotic susceptibility test value: 16
Host strain YMC14/04/R1078
  antibiotic susceptibility class: R
  antibiotic susceptibility test value: 32
Host strain YMC14/04/R1080
  antibiotic susceptibility class: S
  antibiotic susceptibility test value: 4
Host strain YMC14/06/R2359
  antibiotic susceptibility S/I/R: S
  antibiotic susceptibility value: 8
  susceptibility category (S/I/R): S
  susceptibility test value (number given before S/I/R): 8
Host strain YMC14/08/R1169
  antibiotic susceptibility value: 16
  susceptibility category (S/I/R): I
  susceptibility test value (number given before S/I/R): 16
Host strain YMC14/08/T90
  antibiotic susceptibility S/I/R: S
  antibiotic susceptibility value: 8
  susceptibility category (S/I/R): S
  susceptibility test value (number given before S/I/R): 8
Host strain YMC15/02/R436
  antibiotic susceptibility S/I/R: R
  antibiotic susceptibility value: 32
  susceptibility category (S/I/R): R
  susceptibility test value (number given before S/I/R): 32
Host strain YMC15/02/T28
  antibiotic susceptibility value: 16
  susceptibility category (S/I/R): I
  susceptibility test value (number given before S/I/R): 16
Host strain YMC15/03/R1604
  antibiotic susceptibility value: 16
  susceptibility category (S/I/R): I
  susceptibility test value (number given before S/I/R): 16
Host strain YMC15/09/R1869
  antibiotic susceptibility value: 16
  susceptibility category (S/I/R): I
  susceptibility test value (number given before S/I/R): 16
Host strain YMC16/01/P11
  antibiotic susceptibility S/I/R: R
  antibiotic susceptibility value: 32
  susceptibility category (S/I/R): R
  susceptibility test value (number given before S/I/R): 32
Host strain YMC16/01/R123
  antibiotic susceptibility S/I/R: R
